Laboratory results as given in ChEMBL document CHEMBL3352105, “Design, synthesis and SAR analysis of antitumour styryl lactones related to (+)-crassalactones B and C” (Eur J Med Chem, 2014).

Tests used:
[1] = tested on: Jurkat; test: Cytotoxicity against human Jurkat cells after 72 hrs by MTT assay; assay type: functional, cell-based
[2] = tested on: K562; test: Cytotoxicity against human K562 cells after 72 hrs by MTT assay; assay type: functional, cell-based; conditions: K562, 72 h
[3] = Cytotoxicity against human HL60 cells after 72 hrs by MTT assay; assay type: functional, cell-based; conditions: HL-60, 72 h
[4] = tested on: MCF7; test: Cytotoxicity against human MCF7 cells after 72 hrs by MTT assay; assay type: functional, cell-based; conditions: MCF7, 72 h
[5] = tested on: MDA-MB-231; test: Cytotoxicity against human MDA-MB-231 cells after 72 hrs by MTT assay; assay type: functional, cell-based; conditions: MDA-MB-231, 72 h
[6] = tested on: Raji; test: Cytotoxicity against human Raji cells after 72 hrs by MTT assay; assay type: functional, cell-based
[7] = tested on: HeLa; test: Cytotoxicity against human HeLa cells after 72 hrs by MTT assay; assay type: functional, cell-based
[8] = tested on: MRC5; test: Cytotoxicity against human MRC5 cells after 72 hrs by MTT assay; assay type: cell-based; conditions: MRC5, 72 h
[9] = tested on: HL-60; test: Potency index, ratio of IC50 for doxorubicin to IC50 for test compound against human HL60 cells after 72 hrs by MTT assay; assay type: functional
[10] = tested on: Raji; test: Potency index, ratio of IC50 for doxorubicin to IC50 for test compound against human Raji cells after 72 hrs by MTT assay; assay type: functional

Structure (SMILES) | IC50 [1] [µM] | IC50 [2] [µM] | IC50 [3] [µM] | IC50 [4] [µM] | IC50 [5] [µM] | IC50 [6] [µM] | IC50 [7] [µM] | IC50 [8] [µM] | Ratio IC50 [9] | Ratio IC50 [10]
COc1ccc(/C=C/C(=O)O[C@@H]2[C@H]3OC(=O)C[C@H]3O[C@@H]2[C@H](O)c2ccccc2)cc1 | 13.4 | 4.21 | 50.2 | 11.1 | > 100 | 5.69 | 18.6 | > 100 |  | 
O=C(/C=C/c1ccc([N+](=O)[O-])cc1)O[C@@H]1[C@H]2OC(=O)C[C@H]2O[C@@H]1[C@H](O)c1ccccc1 | 44.7 | 14.6 | 48.2 | > 100 | 5.36 | 8.23 | 21.4 | > 100 |  | 
O=C(/C=C/c1ccc(F)cc1)O[C@@H]1[C@H]2OC(=O)C[C@H]2O[C@@H]1[C@H](O)c1ccccc1 | 17.6 | 10.2 | 11.5 | 14.9 | 25.7 | 11.1 | 29.9 | > 100 |  | 
COc1ccc(/C=C/C(=O)O[C@H](c2ccccc2)[C@H]2O[C@@H]3CC(=O)O[C@@H]3[C@H]2O)cc1 | 42.3 | 3.25 | 41.4 | 12.3 | > 100 | 4.37 | 24.9 | > 100 |  | 
O=C(/C=C/c1ccc([N+](=O)[O-])cc1)O[C@H](c1ccccc1)[C@H]1O[C@@H]2CC(=O)O[C@@H]2[C@H]1O | 10.5 | 2.25 | 14.3 | 5.23 | 33.4 | 16.4 | 35.7 | > 100 |  | 
O=C(/C=C/c1ccc(F)cc1)O[C@H](c1ccccc1)[C@H]1O[C@@H]2CC(=O)O[C@@H]2[C@H]1O | 18.1 | 4.58 | 9.45 | 18.7 | 29.6 | 14.5 | 24.1 | > 100 |  | 
O=C(/C=C/c1ccccc1)O[C@@H]1[C@H]2OC(=O)C[C@H]2O[C@@H]1[C@@H](O)c1ccccc1 | 0.87 | 3.33 | 0.02 | 0.22 | 8.64 | 14.5 | 2.47 | > 100 | 46 | 
COc1ccc(/C=C/C(=O)O[C@@H]2[C@H]3OC(=O)C[C@H]3O[C@@H]2[C@@H](O)c2ccccc2)cc1 | 1.12 | 2.63 | 0.11 | 20.2 | 7.32 | 2.34 | 3.21 | > 100 |  | 
O=C(/C=C/c1ccc([N+](=O)[O-])cc1)O[C@@H]1[C@H]2OC(=O)C[C@H]2O[C@@H]1[C@@H](O)c1ccccc1 | 3.52 | 1.12 | 0.36 | 56.2 | 2.64 | 1.02 | 1.66 | > 100 |  | 3
O=C(/C=C/c1ccc(F)cc1)O[C@@H]1[C@H]2OC(=O)C[C@H]2O[C@@H]1[C@@H](O)c1ccccc1 | 0.69 | 0.85 | 2.11 | 84.5 | 1.32 | 1.74 | 4.12 | > 100 |  | 
O=C(/C=C/c1ccccc1)O[C@@H](c1ccccc1)[C@H]1O[C@@H]2CC(=O)O[C@@H]2[C@H]1O | 1.03 | 2.01 | 1.34 | 9.47 | 3.37 | 1.31 | 0.69 | > 100 |  | 
COc1ccc(/C=C/C(=O)O[C@@H](c2ccccc2)[C@H]2O[C@@H]3CC(=O)O[C@@H]3[C@H]2O)cc1 | 18.6 | 11.5 | 8.79 | 9.64 | 28.6 | 8.45 | 11 | > 100 |  | 
O=C(/C=C/c1ccc([N+](=O)[O-])cc1)O[C@@H](c1ccccc1)[C@H]1O[C@@H]2CC(=O)O[C@@H]2[C@H]1O | 24.6 | 14.2 | 10.5 | 4.15 | 64.2 | 4.36 | 4.01 | > 100 |  | 
O=C(/C=C/c1ccc(F)cc1)O[C@@H](c1ccccc1)[C@H]1O[C@@H]2CC(=O)O[C@@H]2[C@H]1O | 19.6 | 15.7 | 11 | 5.36 | 31.6 | 12.7 | 4.36 | > 100 |  | 
O=C(/C=C/c1ccccc1)O[C@@H]1[C@H]2OC(=O)C[C@H]2O[C@@H]1[C@H](OC(=O)/C=C/c1ccccc1)c1ccccc1 | 2.65 | 21.4 | 3.33 | > 100 | > 100 | 11 | 12.2 | 48.6 |  | 
O=C(/C=C/c1ccccc1)O[C@@H]1[C@H]2OC(=O)C[C@H]2O[C@@H]1[C@@H](OC(=O)/C=C/c1ccccc1)c1ccccc1 | 0.31 | 2.15 | 0.15 | 1.64 | 6.69 | 10.2 | 1.45 | > 100 |  | 
O=C(/C=C/c1ccccc1)OC1C2OC(=O)CC2O[C@@H]1Cc1ccccc1 (single isomer, unassigned) | 0.29 | 4.67 | 2.21 | 58.6 | 4.32 | 0.88 | 1.25 | > 100 |  | 
COc1ccc(/C=C/C(=O)OC2C3OC(=O)CC3O[C@@H]2Cc2ccccc2)cc1 (single isomer, unassigned) | 0.84 | 1.02 | 0.27 | 61 | 4.34 | 3.58 | 0.94 | > 100 |  | 
O=C(/C=C/c1ccc([N+](=O)[O-])cc1)OC1C2OC(=O)CC2O[C@@H]1Cc1ccccc1 (single isomer, unassigned) | 3.74 | 0.98 | 0.14 | 23.2 | 5.32 | 2.69 | 0.87 | > 100 |  | 
O=C(/C=C/c1ccc(F)cc1)OC1C2OC(=O)CC2O[C@@H]1Cc1ccccc1 (single isomer, unassigned) | 2.63 | 0.25 | 1.02 | 29 | 8.22 | 1.52 | 1.02 | > 100 |  | 
O=C(/C=C/c1ccccc1)O[C@@H]1[C@H]([C@@H](O)c2ccccc2)O[C@H]2CC(=O)O[C@@H]12 [(+)-CRASSALACTONE B] | 0.12 | 0.78 | 2.54 | 0.85 | 5.32 | 14.6 | 0.98 | > 100 |  | 
O=C(/C=C/c1ccccc1)O[C@H](c1ccccc1)[C@H]1O[C@@H]2CC(=O)O[C@@H]2[C@H]1O [(+)-CRASSALACTONE C] |  |  | > 100 | 7.34 | 88 |  |  | > 100 |  | 
COc1cccc2c1C(=O)c1c(O)c3c(c(O)c1C2=O)C[C@@](O)(C(=O)CO)C[C@@H]3O[C@H]1C[C@H](N)[C@H](O)[C@H](C)O1 [DOXORUBICIN] |  |  | 0.92 |  |  |  | 0.065 |  |  | 
